Active and inactive are the calls of the source. The rule behind the calls is not given here.

What all share (assay type): functional, organism-based
Assay [1] has as its system SARS-CoV-2. Briefly: Antiviral activity against SARS-CoV-2 omicron BA.5 variant infected in K18-hACE2 transgenic mouse model assessed as reduction in viral titers in lung at 20 to 80 mg/kg, po pretreated for 2 hrs followed by viral infection and measured on 2 dpi. To be noted: Severe acute respiratory syndrome coronavirus 2, dose 20-80 mg/kg, time 50.0 hrs.
For assay [2], the system named is SARS-CoV-2. Briefly: Antiviral activity against SARS-CoV-2 omicron BA.5 variant infected in K18-hACE2 transgenic mouse model assessed as septal thickening in lung at 40 to 80 mg/kg, po pretreated for 2 hrs followed by viral infection and measured on 2 dpi. As to conditions: Severe acute respiratory syndrome coronavirus 2, dose 40-80 mg/kg, time 50.0 hrs.
Assay [3] has as its system SARS-CoV-2. Briefly: Antiviral activity against SARS-CoV-2 omicron BA.5 variant infected in K18-hACE2 transgenic mouse model assessed as reduction in degree of damage at 20 mg/kg, po pretreated for 2 hrs followed by viral infection and measured on 2 dpi. As to conditions: Severe acute respiratory syndrome coronavirus 2, time 50.0 hrs.
Assay [4] has as its system SARS-CoV-2. Briefly: Antiviral activity against SARS-CoV-2 omicron BA.5 variant infected in po dosed K18-hACE2 transgenic mouse model assessed as reduction in viral RNA loads in lung pretreated for 2 hrs followed by viral infection and measured on 2 dpi. To be noted: Severe acute respiratory syndrome coronavirus 2, time 50.0 hrs.
Assay [5] relates to SARS-CoV-2. Briefly: Antiviral activity against SARS-CoV-2 omicron BA.5 variant infected in K18-hACE2 transgenic mouse model assessed as inflammatory cell infiltration in lung at 40 to 80 mg/kg, po pretreated for 2 hrs followed by viral infection and measured on 2 dpi. As to conditions: Severe acute respiratory syndrome coronavirus 2, dose 40-80 mg/kg, time 50.0 hrs.
Assay [6] relates to SARS-CoV-2. Briefly: Antiviral activity against SARS-CoV-2 omicron BA.5 variant infected in K18-hACE2 transgenic mouse model assessed as reduction in viral RNA loads in lung at 80 mg/kg, po pretreated for 2 hrs followed by viral infection and measured on 2 dpi. As to conditions: Severe acute respiratory syndrome coronavirus 2, time 50.0 hrs.
In assay [7] the test system is SARS-CoV-2. Briefly: Antiviral activity against SARS-CoV-2 omicron BA.5 variant infected in K18-hACE2 transgenic mouse model assessed as reduction in disease severity at 20 mg/kg, po pretreated for 2 hrs followed by viral infection and measured on 2 dpi. As to conditions: Severe acute respiratory syndrome coronavirus 2, time 50.0 hrs.
Assay [8] relates to SARS-CoV-2. Briefly: Antiviral activity against SARS-CoV-2 omicron BA.5 variant infected in K18-hACE2 transgenic mouse model assessed as inflammatory cell infiltration in lung at 40 mg/kg, po pretreated for 2 hrs followed by viral infection and measured on 2 dpi. To be noted: Severe acute respiratory syndrome coronavirus 2, time 50.0 hrs.
Assay [9] relates to SARS-CoV-2. Briefly: Antiviral activity against SARS-CoV-2 omicron BA.5 variant infected in K18-hACE2 transgenic mouse model assessed as reduction in viral titers in lung at 30 mg/kg, po pretreated for 2 hrs followed by viral infection and measured on 2 dpi. To be noted: Severe acute respiratory syndrome coronavirus 2, time 50.0 hrs.
Assay [10] relates to SARS-CoV-2. Briefly: Antiviral activity against SARS-CoV-2 omicron BA.5 variant infected in K18-hACE2 transgenic mouse model assessed as septal thickening in lung at 40 mg/kg, po pretreated for 2 hrs followed by viral infection and measured on 2 dpi. To be noted: Severe acute respiratory syndrome coronavirus 2, time 50.0 hrs.
In assay [11] the test system is SARS-CoV-2. Briefly: Antiviral activity against SARS-CoV-2 omicron BA.5 variant infected in K18-hACE2 transgenic mouse model assessed as reduction in viral RNA loads in lung at 30 mg/kg, po pretreated for 2 hrs followed by viral infection and measured on 2 dpi. To be noted: Severe acute respiratory syndrome coronavirus 2, time 50.0 hrs.
For assay [12], the system named is SARS-CoV-2. Briefly: Antiviral activity against SARS-CoV-2 omicron BA.5 variant infected in K18-hACE2 transgenic mouse model assessed as reduction in degree of damage at 15 to 30 mg/kg, po pretreated for 2 hrs followed by viral infection and measured on 2 dpi. As to conditions: Severe acute respiratory syndrome coronavirus 2, dose 15-30 mg/kg, time 50.0 hrs.
Assay [13] deals with SARS-CoV-2. Briefly: Antiviral activity against SARS-CoV-2 omicron BA.5 variant infected in K18-hACE2 transgenic mouse model assessed as reduction in viral titers in lung at 15 to 90 mg/kg, po pretreated for 2 hrs followed by viral infection and measured on 2 dpi. To be noted: Severe acute respiratory syndrome coronavirus 2, dose 15-90 mg/kg, time 50.0 hrs.
The test system of assay [14] is SARS-CoV-2. Briefly: Antiviral activity against SARS-CoV-2 omicron BA.5 variant infected in K18-hACE2 transgenic mouse model assessed as inflammatory cell infiltration in lung at 90 mg/kg, po pretreated for 2 hrs followed by viral infection and measured on 2 dpi. As to conditions: Severe acute respiratory syndrome coronavirus 2, time 50.0 hrs.
Assay [15] concerns SARS-CoV-2. Briefly: Antiviral activity against SARS-CoV-2 omicron BA.5 variant infected in K18-hACE2 transgenic mouse model assessed as septal thickening in lung at 90 mg/kg, po pretreated for 2 hrs followed by viral infection and measured on 2 dpi. As to conditions: Severe acute respiratory syndrome coronavirus 2, time 50.0 hrs.
Assay [16] concerns SARS-CoV-2. Briefly: Antiviral activity against SARS-CoV-2 omicron BA.5 variant infected in K18-hACE2 transgenic mouse model assessed as reduction in disease severity at 15 to 30 mg/kg, po pretreated for 2 hrs followed by viral infection and measured on 2 dpi. To be noted: Severe acute respiratory syndrome coronavirus 2, dose 15-30 mg/kg, time 50.0 hrs.

For `Cn1cc2cc(/N=c3\[nH]c(=O)n(-c4cccnc4)c(=O)n3Cc3cc(F)c(F)cc3F)c(Cl)cc2n1`, the result in the assay with SARS-CoV-2 [1], in the assay on SARS-CoV-2 [2], in the assay on SARS-CoV-2 [3], in the assay with SARS-CoV-2 [6] and in the assay with SARS-CoV-2 [7] was Active. Moreover, the values for the Activity result with SARS-CoV-2 [4] and in the assay with SARS-CoV-2 [5] were “Dose-dependent-effect” and “Mild_effect”, respectively.
With `Cn1cnc(Cn2c(=O)[nH]/c(=N\c3cc4cn(C)nc4cc3Cl)n(Cc3cc(F)c(F)cc3F)c2=O)n1`, the values for the Activity result in the assay on SARS-CoV-2 [8] and with SARS-CoV-2 [4] were “Mild_effect” and “Dose-dependent-effect”, respectively. For the same compound, the result with SARS-CoV-2 [9], in the assay with SARS-CoV-2 [10] and in the assay on SARS-CoV-2 [11] was Active.
Turning to `Cc1ccc(C#N)cc1Cn1c(=O)n(-c2cncc(SC3CC3)c2)c(=O)[nH]/c1=N\c1cc2cn(C)nc2cc1Cl`, the result with SARS-CoV-2 [12], in the assay on SARS-CoV-2 [13], in the assay on SARS-CoV-2 [15] and in the assay on SARS-CoV-2 [16] was Active. Moreover, the results for the Activity entry with SARS-CoV-2 [14] and with SARS-CoV-2 [4] were “Mild_effect” and “Dose-dependent-effect”, respectively.

The values above are taken from ChEMBL document CHEMBL6134832, “Expanding the utilization of binding pockets proves to be effective for noncovalent small molecule inhibitors against SARS-CoV-2 Mpro” (Eur J Med Chem, 2025).
